This is an account of results in patent US9346797B1, “2-amino 6-(difluoromethyl)-5,5-difluoro-6-phenyl-3,4,5,6-tetrahydropyridines as BACE1 inhibitors” (H. Lundbeck A/S, priority 2014, dated 2016).

One data set concerns the target human BACE1 (Homo sapiens (Human), UniProt P56817). The data set is described as follows: BACE1 binding assay (SPA-based radioligand binding). Particulars: pH 4.5, Ki calculated from IC50. The protocol: The binding assay was performed as SPA-based assay using a biotinylated form of human BACE1 recombinantly expressed and subsequently purified from Freestyle HEK293 cells. The binding assay was run in a 50 mM sodium acetate buffer, pH 4.5 containing 50 mM NaCl and 0.03% Tween-20 in white clear bottom 384 plates (Corning #3653). 10 nM (final concentration) radioligand ([^3H]—N-((1S,2R)-1-benzyl-3-cyclopropylamino-2-hydroxy-propyl)-5-(methanesulfonyl-methyl-amino)-N—((R)-1-phenyl-ethyl)-isophthalamide) (TRQ11569 purchased from GE Healthcare) was mixed with test compound at a given concentration, 6 nM (final concentration) human BACE1 and 25 μg Streptavidin coated PVT core SPA beads (RPNQ0007, GE Healthcare Life Sciences) in a total volume of 40 μl. Several concentrations of each test compound were tested in the assay for IC50 determination. The plates were incubated for one hour at room temperature and counted in a Wallac Trilux counter. Total and non-specific binding were determined using buffer and 1 μM (final concentration) of the high affinity BACE1 reference inhibitor (S)-6-[3-chloro-5-(5-prop-1-ynyl-pyridin-3-yl)-thiophen-2-yl]-2-imino-3,6-dimethyl-tetrahydro-pyrimidin-4-one, respectively. For each test compound, a IC50 value (the concentration mediating 50% inhibition of the specific binding of the radioligand) was determined from concentration-response curve and used to calculate the Ki from the equation Ki=IC50/(1+L/Kd), where L and Kd are the final concentration of the radioligand used in the assay and the dissociation constant of the radioligand, respectively. The Kd of the radioligand was determined from saturation binding experiments.

For a further data set, the system named is P-gp (MDR1). The data set is described as follows: MDCK-MDR1 assay (permeability/efflux). It is filed as in vitro ADME. Particulars: dog, Papp BA/Papp AB, 60-minute incubation, Pgp substrate when ≧2. The protocol: The permeability of the test compounds was assessed in MDCK-MDR1 cells that were cultured to confluency (4-6 days) in a 96 transwell plate. Test compounds were diluted with the transport buffer (HBSS+1% BSA) to a concentration of 0.5 μM and applied to the apical or basolateral side of the cell monolayer. Permeation of the test compounds from A to B direction or B to A direction was determined in triplicate over a 60-minute incubation time at 37° C. and 5% CO2 with a relative humidity of 95%. Test compounds were quantified by LC-MS/MS analysis based on the peaks area ratios of analyte/IS in both the receiver and donor wells of the transwell plate.
The apparent permeability coefficient Papp (cm/s) was calculated using the equation: Papp=(dCr/dt)×Vr/(A×C0)
Where dCr/dt is the cumulative concentration of compound in the receiver chamber as a function of time (μM/s); Vr is the solution volume in the receiver chamber (0.05 mL on the apical side; 0.25 mL on the basolateral side); A is the surface area for the transport, i.e. 0.0804 cm^2 for the area of the monolayer; CO is the initial concentration in the donor chamber (μM).
Compounds are classified Pgp substrates when efflux ratio (Papp BA/Papp AB) is ≧2.

The Ki is a dissociation constant, usually derived from enzyme kinetics or from competition with a known ligand. As a reminder, the efflux ratio is the permeability from basolateral to apical divided by that in the opposite direction, in the common usage.

Structures are written as SMILES.

Sequence of human BACE1 (P56817 46-501): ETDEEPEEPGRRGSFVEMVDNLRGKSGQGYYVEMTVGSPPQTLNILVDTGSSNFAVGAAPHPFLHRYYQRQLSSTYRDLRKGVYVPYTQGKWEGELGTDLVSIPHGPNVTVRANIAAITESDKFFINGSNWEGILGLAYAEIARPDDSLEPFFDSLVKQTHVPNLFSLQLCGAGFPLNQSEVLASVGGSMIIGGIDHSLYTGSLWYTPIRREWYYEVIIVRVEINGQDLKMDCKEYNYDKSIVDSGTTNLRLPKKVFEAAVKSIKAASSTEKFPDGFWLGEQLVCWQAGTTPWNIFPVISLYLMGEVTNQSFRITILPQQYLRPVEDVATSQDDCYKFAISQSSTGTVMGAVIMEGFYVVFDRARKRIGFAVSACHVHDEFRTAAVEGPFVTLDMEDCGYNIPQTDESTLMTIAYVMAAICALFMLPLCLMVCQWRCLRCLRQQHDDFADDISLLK

In the case of `COc1cnc(C(=O)Nc2ccc(F)c([C@@]3(C(F)F)N=C(N)CCC3(F)F)c2)nc1` [Compound 9, (S)—N-(3-(6-amino-2-(difluoromethyl)-3,3-difluoro-2,3,4,5-tetrahydropyridin-2-yl)-4-fluorophenyl)-5-methoxypyrimidine-2-carboxamide], the Ki at human BACE1 was 0.0069 µM. Also, the efflux ratio at 60 min, 0.5 μM with P-gp (MDR1) worked out at 11.

Turning to `NC1=N[C@@](c2cc(NC(=O)c3ccc(Br)cn3)ccc2F)(C(F)F)C(F)(F)CC1` [Compound 12, (S)—N-(3-(6-amino-2-(difluoromethyl)-3,3-difluoro-2,3,4,5-tetrahydropyridin-2-yl)-4-fluorophenyl)-5-bromopicolinamide], the Ki on human BACE1 was 0.0061 µM. Also, the efflux ratio at 60 min, 0.5 μM with P-gp (MDR1) was 1.31.

Take `N#Cc1ccc(C(=O)Nc2ccc(F)c([C@@]3(C(F)F)N=C(N)CCC3(F)F)c2)nc1` [Compound 7, (S)—N-(3-(6-amino-2-(difluoromethyl)-3,3-difluoro-2,3,4,5-tetrahydropyridin-2-yl)-4-fluorophenyl)-5-cyanopicolinamide]: the Ki on human BACE1 was 0.0074 µM. Besides, the efflux ratio at 60 min, 0.5 μM with P-gp (MDR1) came out at 2.43.

As to `NC1=N[C@@](c2cc(NC(=O)c3ccc(F)cn3)ccc2F)(C(F)F)C(F)(F)CC1` [Compound 2, (S)—N-(3-(6-amino-2-(difluoromethyl)-3,3-difluoro-2,3,4,5-tetrahydropyridin-2-yl)-4-fluorophenyl)-5-fluoropicolinamide], the inhibition constant Ki on human BACE1 was 0.023 µM. Further, in the data set on P-gp (MDR1), the efflux ratio at 60 min, 0.5 μM was 1.75.

For the compound `Cc1csc(C(=O)Nc2ccc(F)c([C@@]3(C(F)F)N=C(N)CCC3(F)F)c2)n1` [Compound 8, (S)—N-(3-(6-amino-2-(difluoromethyl)-3,3-difluoro-2,3,4,5-tetrahydropyridin-2-yl)-4-fluoro-phenyl)-4-methylthiazole-2-carboxamide], the Ki at human BACE1 was 0.071 µM. Further, the efflux ratio at 60 min, 0.5 μM in the data set with P-gp (MDR1) came out at 0.92.

For `Cc1nc(C(=O)Nc2ccc(F)c([C@@]3(C(F)F)N=C(N)CCC3(F)F)c2)co1` [Compound 4, (S)—N-(3-(6-amino-2-(difluoromethyl)-3,3-difluoro-2,3,4,5-tetrahydropyridin-2-yl)-4-fluorophenyl)-2-methyloxazole-4-carboxamide], the Ki at human BACE1 is 0.02 µM. In the data set with P-gp (MDR1), the efflux ratio at 60 min, 0.5 μM stood at 4.01.

On to `NC1=N[C@@](c2cc(NC(=O)c3cnc(C(F)F)cn3)ccc2F)(C(F)F)C(F)(F)CC1` [Compound 6, (S)—N-(3-(6-amino-2-(difluoromethyl)-3,3-difluoro-2,3,4,5-tetrahydropyridin-2-yl)-4-fluorophenyl)-5-(difluoromethyl)pyrazine-2-carboxamide], for which the Ki on human BACE1 is 0.02 µM. In addition, the efflux ratio at 60 min, 0.5 μM in the data set on P-gp (MDR1) is 1.36.

Take `NC1=N[C@@](c2cc(NC(=O)c3ccc(Cl)cn3)ccc2F)(C(F)F)C(F)(F)CC1` [Compound 1, (S)—N-(3-(6-amino-2-(difluoromethyl)-3,3-difluoro-2,3,4,5-tetrahydropyridin-2-yl)-4-fluorophenyl)-5-chloropicolinamide]: the Ki at human BACE1 is 0.018 µM. In addition, the efflux ratio at 60 min, 0.5 μM in the data set on P-gp (MDR1) was found to be 1.16.

In the case of `COc1cnc(C(=O)Nc2ccc(F)c([C@@]3(C(F)F)N=C(N)CCC3(F)F)c2)c(C)n1` [Compound 10, (S)—N-(3-(6-amino-2-(difluoromethyl)-3,3-difluoro-2,3,4,5-tetrahydropyridin-2-yl)-4-fluorophenyl)-5-methoxy-3-methylpyrazine-2-carboxamide], the Ki at human BACE1 is 0.016 µM. Besides, in the data set on P-gp (MDR1), the efflux ratio at 60 min, 0.5 μM was 0.98.

For the compound `Cc1cc(C#N)cnc1C(=O)Nc1ccc(F)c([C@@]2(C(F)F)N=C(N)CCC2(F)F)c1` [Compound 11, (S)—N-(3-(6-amino-2-(difluoromethyl)-3,3-difluoro-2,3,4,5-tetrahydropyridin-2-yl)-4-fluorophenyl)-5-cyano-3-methylpicolinamide], the Ki at human BACE1 is 0.0078 µM. The efflux ratio at 60 min, 0.5 μM with P-gp (MDR1) was found to be 2.68.
